Numbering of substitutions follows the chain as printed.
Key:
[1] = molecular target: T1, mSUCNR1-N18^1.31E/K269^7.32N (Mus musculus, UniProt Q99MT6, K269N/N18E); test: G protein activation BRET assay, mSUCNR1-N18E/K269N; type: cell-based; conditions: against an EC80 concentration of succinate
T1 construct: expressed in transfected cells; host or cells: HEK-293T
T1 sequence (Q99MT6 1-317 N18E/K269N): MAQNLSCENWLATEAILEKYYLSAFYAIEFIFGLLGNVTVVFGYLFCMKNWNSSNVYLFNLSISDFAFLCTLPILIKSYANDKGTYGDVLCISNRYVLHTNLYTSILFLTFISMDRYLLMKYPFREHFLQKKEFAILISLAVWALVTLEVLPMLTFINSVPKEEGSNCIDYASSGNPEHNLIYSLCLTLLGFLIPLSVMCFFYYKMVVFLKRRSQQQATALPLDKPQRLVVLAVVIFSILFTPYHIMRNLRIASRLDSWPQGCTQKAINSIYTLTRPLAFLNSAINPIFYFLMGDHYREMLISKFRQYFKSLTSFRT
Method: G protein activation assays were carried out using the open-source TRUPATH platform previously described.[36]

hSUCNR1 [2] = molecular target: T2, hSUCNR1 (Homo sapiens, UniProt Q9BXA5); test: cAMP assay, inhibition of succinate response at hSUCNR1; type: cell-based; design: expressed in transfected cells; host or cells: Flp-In T-REx 293; conditions: inhibition of […] succinate response; mean ± SEM
T2 sequence (Q9BXA5 1-334): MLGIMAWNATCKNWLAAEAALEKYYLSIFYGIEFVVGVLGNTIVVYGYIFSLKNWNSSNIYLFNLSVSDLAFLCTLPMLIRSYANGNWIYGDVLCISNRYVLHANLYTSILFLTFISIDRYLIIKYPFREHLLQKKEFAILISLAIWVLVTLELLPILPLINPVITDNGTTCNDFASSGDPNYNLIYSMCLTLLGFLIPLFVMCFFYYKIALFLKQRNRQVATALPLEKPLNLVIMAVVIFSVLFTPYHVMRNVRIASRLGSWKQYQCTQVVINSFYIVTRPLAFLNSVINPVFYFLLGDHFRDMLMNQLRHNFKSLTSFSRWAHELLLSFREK

hmSUCNR1 [3] = molecular target: T3, hmSUCNR1 (Mus musculus, UniProt Q99MT6, G84W/K269N/N18E); test: BRET competition binding using 22 as tracer, hmSUCNR1
T3 sequence (Q99MT6 1-317 N18E/G84W/K269N): T1 sequence (Q99MT6 1-317 N18E/K269N) with G84W

[4] = molecular target: T4, hmSUCNR1 (N18^1.31E, K269^7.32N, and G84^EL1W) (Mus musculus, UniProt Q99MT6, G84W/K269N/N18E); test: cAMP assay, inhibition of succinate response at hmSUCNR1; type: cell-based; conditions: read-out: hmSUCNR1 cAMP pIC50 (converted)
T4 construct: mGlu5 glutamate receptor signal peptide (N); expressed in transfected cells; the methods describe Flp-In T-REx 293
T4 sequence (Q99MT6 1-317 N18E/G84W/K269N): T1 sequence (Q99MT6 1-317 N18E/K269N) with G84W

[5] = molecular target: T5, mSUCNR1 construct containing N18^1.31E, K269^7.32N, and G84^EL1W (Mus musculus, UniProt Q99MT6, G84W/K269N/N18E); test: G protein activation BRET assay, mSUCNR1-N18E/G84W/K269N; type: cell-based
T5 construct: expressed in transfected cells; host or cells: HEK-293T
T5 sequence (Q99MT6 1-317 N18E/G84W/K269N): T1 sequence (Q99MT6 1-317 N18E/K269N) with G84W
Method: G protein activation assays were carried out using the open-source TRUPATH platform previously described.[36] HEK-293T cells were transfected with Gαi1-Rluc8, Gγ8-GFP^2, Gβ3 and either human, mouse, mouse-N18E/K269N, or mouse-N18E/G84W/K269N SUCNR1 in a 1:1:1:1 plasmid mass ratio using polyethyleneimine.

hSUCNR1 [6] = molecular target: T2, hSUCNR1; test: BRET competition binding using 46 as tracer, hSUCNR1; conditions: […] 46, Kd = 310 nM
mSUCNR1 [7] = molecular target: T6, mSUCNR1 (Mus musculus, UniProt Q99MT6); test: BRET competition binding using 22 as tracer, mSUCNR1; conditions: 1 μM 22, Kd = […]; highest unlabeled ligand 30 μΜ
T6 sequence (Q99MT6 1-317): T1 sequence (Q99MT6 1-317 N18E/K269N) with E18N, N269K

hmSUCNR1 [8] = molecular target: T3, hmSUCNR1; test: BRET competition binding using 46 as tracer, hmSUCNR1
hSUCNR1 [9] = molecular target: T2, hSUCNR1; test: BRET competition binding using 22 as tracer, hSUCNR1; conditions: 3 μM 22, Kd = 990 nM; mean ± SEM, three experiments
mSUCNR1 [10] = molecular target: T6, mSUCNR1; conditions: transiently transfected HEK-293T cells
mSUCNR1 [11] = molecular target: T6, mSUCNR1; test: cAMP assay, agonist potency at mSUCNR1; type: cell-based; design: expressed in transfected cells; host or cells: Flp-In T-REx 293; conditions: Flp-In T-REx 293 cells; for cAMP mSUCNR1 pEC50: mean ± SEM, minimum three independent experiments
hSUCNR1 [12] = molecular target: T2, hSUCNR1; test: cAMP assay, agonist potency at hSUCNR1; type: cell-based; design: expressed in transfected cells; host or cells: Flp-In T-REx 293; conditions: Flp-In T-REx 293 cells, mean ± SEM, minimum three independent experiments
Nluc-mSUCNR1 = molecular target: T7, Nluc-mSUCNR1 (Mus musculus, UniProt Q99MT6); test: cAMP assay, agonist potency at Nluc-mSUCNR1; conditions: N-terminally Nluc-tagged receptor
T7 sequence (Q99MT6 1-317): T1 sequence (Q99MT6 1-317 N18E/K269N) with E18N, N269K

antagonism against mSUCNR1-N18^1.31E/K269^7.32N [1]	cAMP hSUCNR1 pIC50 (hSUCNR1 [2])	Ki (hmSUCNR1 [3]) [µM]	IC50 [4] [µM]	Competion binding using 46 hSUCNR1 pKi (hSUCNR1 [6])	Competion binding using 22 mSUCNR1 pKi (mSUCNR1 [7])	Ki (hmSUCNR1 [8]) [µM]	Competion binding using 22 hSUCNR1 pKi (hSUCNR1 [9])	G protein activation pEC50 at mSUCNR1 (mSUCNR1 [10])	Emax (mSUCNR1 [11]) [%]	cAMP mSUCNR1 pEC50 (mSUCNR1 [11])	cAMP mSUCNR1 pEC50 (mSUCNR1 [11]; listed as succinate)	cAMP hSUCNR1 pEC50 (hSUCNR1 [12])	EC50 (hSUCNR1 [12]; read-out: cAMP hSUCNR1 pEC50 (converted)) [µM]	G protein activation pEC50 at mSUCNR1 N18^1.31E, K269^7.32N, G84^EL1W ([5]; transiently transfected HEK-293T cells)	Nluc-mSUCNR1 cAMP pEC50 (Nluc-mSUCNR1)	SMILES	antagonism at mSUCNR1 N18^1.31E, K269^7.32N, G84^EL1W mutant ([5]; against an EC80 concentration of succinate)
no measurable antagonism	7.07 ± 0.21	0.0501	0.0794	7.1 ± 0.1	5.1 ± 0.0	0.0631	7.4 ± 0.1									CN1CCN(Cc2ccc(-c3cccc(C(=O)Nc4ccccc4CC(=O)O)c3)cc2)CC1 [Compound 1, 4-((3′-((2-(Carboxymethyl)phenyl)carbamoyl)-[1,1′-biphenyl]-4-yl)methyl)-1-methylpiperazin-1-ium 2,2,2-trifluoroacetate]	a level of antagonism similar to that with hSUCNR1
		1000		3.2 ± 0.1	3.3 ± 0.1	631	3.7 ± 0.1	5.29 ± 0.12	100	5.02 ± 0.10	~5.0	5.04 ± 0.02	~10	4.28 ± 0.09	5.69 ± 0.11	O=C(O)CCC(=O)O [Succinate]	

From PMC10350927 (Journal of Medicinal Chemistry, 2023)
